Measurements reported in PubChem BioAssay (NCI).
Several values for one entry are separate records, joined by “and”; a condition that tells them apart may be missing. Equal entries are not always repeated.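 Results reflect a 48-hour exposure of cells in 96-well plates to compound at five concentrations. Here, GI50 denotes the concentration required for 50% inhibition of growth. TGI: concentration producing complete growth inhibition.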

Columns and labels:
Assay in all cases: NCI tumour cell line growth inhibition, 48 h
HCT-116 colon = tested on: HCT-116 colon
KM20L2 colon = tested on: KM20L2 colon
SF-268 CNS = tested on: SF-268 CNS
P388/ADR leukemia = tested on: P388/ADR leukemia
NCI-H460 lung = tested on: NCI-H460 lung
LOX IMVI melanoma = tested on: LOX IMVI melanoma
DMS 273 small cell lung = tested on: DMS 273 small cell lung
OVCAR-4 ovarian = tested on: OVCAR-4 ovarian
SK-MEL-28 melanoma = tested on: SK-MEL-28 melanoma
HT29 colon = tested on: HT29 colon
NCI/ADR-RES ovarian = tested on: NCI/ADR-RES ovarian
RXF 393 renal = tested on: RXF 393 renal
SNB-75 CNS = tested on: SNB-75 CNS
KM12 colon = tested on: KM12 colon
SK-MEL-5 melanoma = tested on: SK-MEL-5 melanoma
SN12C renal = tested on: SN12C renal
UACC-62 melanoma = tested on: UACC-62 melanoma
A549 NSCLC = tested on: A549 NSCLC
HCC-2998 colon = tested on: HCC-2998 colon
CCRF-CEM leukemia = tested on: CCRF-CEM leukemia
RPMI-8226 leukemia = tested on: RPMI-8226 leukemia
SK-OV-3 ovarian = tested on: SK-OV-3 ovarian
DMS 114 small cell lung = tested on: DMS 114 small cell lung
MCF7 breast = tested on: MCF7 breast
SNB-78 CNS = tested on: SNB-78 CNS
UO-31 renal = tested on: UO-31 renal
NCI-H226 lung = tested on: NCI-H226 lung
SW-620 colon = tested on: SW-620 colon
K-562 leukemia = tested on: K-562 leukemia
EKVX NSCLC = tested on: EKVX NSCLC
HL-60(TB) leukemia = tested on: HL-60(TB) leukemia
SNB-19 CNS = tested on: SNB-19 CNS
HOP-92 NSCLC = tested on: HOP-92 NSCLC
IGROV1 ovarian = tested on: IGROV1 ovarian
SF-295 CNS = tested on: SF-295 CNS
HCT-15 colon = tested on: HCT-15 colon
M19-MEL melanoma = tested on: M19-MEL melanoma
SF-539 CNS = tested on: SF-539 CNS
DLD-1 colon = tested on: DLD-1 colon
COLO 205 colon = tested on: COLO 205 colon
NCI-H23 lung = tested on: NCI-H23 lung
OVCAR-8 ovarian = tested on: OVCAR-8 ovarian
HOP-62 NSCLC = tested on: HOP-62 NSCLC
CAKI-1 renal = tested on: CAKI-1 renal
MOLT-4 leukemia = tested on: MOLT-4 leukemia
HOP-18 NSCLC = tested on: HOP-18 NSCLC
SK-MEL-2 melanoma = tested on: SK-MEL-2 melanoma
OVCAR-3 ovarian = tested on: OVCAR-3 ovarian
OVCAR-5 ovarian = tested on: OVCAR-5 ovarian
UACC-257 melanoma = tested on: UACC-257 melanoma
NCI-H522 lung = tested on: NCI-H522 lung
XF 498 CNS = tested on: XF 498 CNS
MALME-3M melanoma = tested on: MALME-3M melanoma
SN12K1 renal = tested on: SN12K1 renal
P388 leukemia = tested on: P388 leukemia
U251 CNS = tested on: U251 CNS
A498 renal = tested on: A498 renal

Structure (SMILES): Cc1c2cc[n+](C)cc2c(COC2OC(CO)C(O)C2O)c2c3ccccc3n(C)c12 (stereo unspecified)
- TGI (HCT-116 colon): > 100 µM
- TGI (KM20L2 colon): > 100 µM
- TGI (SF-268 CNS): > 97 µM
- TGI (P388/ADR leukemia): > 100 µM
- TGI (NCI-H460 lung): > 100 µM
- TGI (LOX IMVI melanoma): > 100 µM
- TGI (DMS 273 small cell lung): > 100 µM
- TGI (OVCAR-4 ovarian): > 100 µM
- TGI (SK-MEL-28 melanoma): > 100 µM
- TGI (HT29 colon): > 100 µM
- TGI (NCI/ADR-RES ovarian): > 100 µM
- TGI (RXF 393 renal): > 100 µM
- TGI (SNB-75 CNS): 92.4 µM
- TGI (KM12 colon): > 100 µM
- TGI (SK-MEL-5 melanoma): > 100 µM
- TGI (SN12C renal): 89.1 µM
- TGI (UACC-62 melanoma): > 100 µM
- TGI (A549 NSCLC): > 100 µM
- TGI (HCC-2998 colon): > 100 µM
- TGI (CCRF-CEM leukemia): > 100 µM
- TGI (RPMI-8226 leukemia): > 100 µM
- TGI (SK-OV-3 ovarian): 99.1 µM
- TGI (DMS 114 small cell lung): > 100 µM
- TGI (MCF7 breast): > 100 µM
- TGI (SNB-78 CNS): > 100 µM
- TGI (UO-31 renal): > 100 µM
- TGI (NCI-H226 lung): > 94.1 µM
- TGI (SW-620 colon): > 100 µM
- TGI (K-562 leukemia): > 100 µM
- TGI (EKVX NSCLC): > 100 µM
- TGI (HL-60(TB) leukemia): > 100 µM
- TGI (SNB-19 CNS): > 95.7 µM
- TGI (HOP-92 NSCLC): > 100 µM
- TGI (IGROV1 ovarian): > 100 µM
- TGI (SF-295 CNS): > 100 µM
- TGI (HCT-15 colon): > 100 µM
- TGI (M19-MEL melanoma): > 100 µM
- TGI (SF-539 CNS): > 100 µM
- TGI (DLD-1 colon): > 100 µM
- TGI (COLO 205 colon): > 100 µM
- TGI (NCI-H23 lung): > 100 µM
- TGI (OVCAR-8 ovarian): > 100 µM
- TGI (HOP-62 NSCLC): > 74.2 µM
- TGI (CAKI-1 renal): > 100 µM
- TGI (MOLT-4 leukemia): > 100 µM
- TGI (HOP-18 NSCLC): > 100 µM
- TGI (SK-MEL-2 melanoma): > 100 µM
- TGI (OVCAR-3 ovarian): > 100 µM
- TGI (OVCAR-5 ovarian): > 100 µM
- TGI (UACC-257 melanoma): > 100 µM
- TGI (NCI-H522 lung): > 100 µM
- TGI (XF 498 CNS): > 97.3 µM
- TGI (MALME-3M melanoma): 98.4 µM
- TGI (SN12K1 renal): > 100 µM
- TGI (P388 leukemia): > 100 µM
- TGI (U251 CNS): > 100 µM
- TGI (A498 renal): > 100 µM

Structure (SMILES): CC(=O)OC1CC2(O)C(CCC3(C)C(c4ccc(=O)oc4)CCC32O)C2(C)CCC(O)C=C12 (stereo unspecified)
- GI50 (HCT-116 colon): 0.00498 µM
- TGI (HCT-116 colon): 0.104 µM and 0.0477 µM
- GI50 (KM20L2 colon): 0.0375 µM
- TGI (KM20L2 colon): 0.191 µM and 0.187 µM
- GI50 (SF-268 CNS): 0.00796 µM
- TGI (SF-268 CNS): 0.149 µM and 0.0437 µM
- GI50 (P388/ADR leukemia): 69.5 µM
- TGI (P388/ADR leukemia): 261 µM
- GI50 (NCI-H460 lung): 0.0375 µM
- TGI (NCI-H460 lung): 0.0271 µM and 0.0388 µM
- GI50 (LOX IMVI melanoma): 0.0375 µM
- TGI (LOX IMVI melanoma): 0.126 µM and 0.0573 µM
- GI50 (DMS 273 small cell lung): 0.0375 µM
- TGI (DMS 273 small cell lung): 0.0714 µM and 0.0478 µM
- GI50 (OVCAR-4 ovarian): 0.0375 µM
- TGI (OVCAR-4 ovarian): 0.0686 µM and 0.0495 µM
- TGI (SK-MEL-28 melanoma): 0.289 µM and 0.171 µM
- GI50 (HT29 colon): 0.0592 µM
- GI50 (NCI/ADR-RES ovarian): 0.0375 µM
- TGI (NCI/ADR-RES ovarian): 0.143 µM and 0.255 µM
- GI50 (RXF 393 renal): 0.00624 µM
- TGI (RXF 393 renal): 0.027 µM and 0.0399 µM
- GI50 (SNB-75 CNS): 0.0375 µM
- TGI (SNB-75 CNS): 0.188 µM and 0.116 µM
- GI50 (KM12 colon): 0.033 µM and 0.0814 µM
- TGI (KM12 colon): 0.213 µM and 0.676 µM
- GI50 (SK-MEL-5 melanoma): 0.0375 µM
- TGI (SK-MEL-5 melanoma): 0.046 µM and 0.04 µM
- GI50 (SN12C renal): 0.0375 µM
- GI50 (UACC-62 melanoma): 0.0375 µM
- TGI (UACC-62 melanoma): 0.0827 µM and 0.0478 µM
- GI50 (A549 NSCLC): 0.00624 µM
- TGI (A549 NSCLC): 0.0272 µM
- GI50 (HCC-2998 colon): 0.0437 µM
- TGI (HCC-2998 colon): 0.357 µM and 0.195 µM
- GI50 (CCRF-CEM leukemia): 0.00387 µM and 0.0375 µM
- TGI (CCRF-CEM leukemia): 0.0519 µM and 0.0405 µM
- GI50 (RPMI-8226 leukemia): 0.0375 µM
- TGI (RPMI-8226 leukemia): 0.134 µM and 0.0803 µM
- GI50 (SK-OV-3 ovarian): 0.0435 µM
- TGI (SK-OV-3 ovarian): 0.104 µM and 0.117 µM
- TGI (DMS 114 small cell lung): 0.0164 µM
- GI50 (MCF7 breast): 0.0173 µM
- TGI (MCF7 breast): 0.188 µM and 0.181 µM
- GI50 (SNB-78 CNS): 0.0375 µM
- TGI (SNB-78 CNS): 0.47 µM and 0.0866 µM
- GI50 (UO-31 renal): 0.0667 µM
- TGI (UO-31 renal): 0.131 µM and 0.095 µM
- GI50 (NCI-H226 lung): 0.0808 µM
- TGI (NCI-H226 lung): 0.184 µM and 0.183 µM
- GI50 (SW-620 colon): 0.01 µM
- TGI (SW-620 colon): 0.17 µM and 0.0561 µM
- GI50 (K-562 leukemia): 0.0128 µM
- TGI (K-562 leukemia): 0.256 µM and 0.178 µM
- GI50 (EKVX NSCLC): 0.0375 µM
- TGI (EKVX NSCLC): 0.123 µM and 0.0477 µM
- GI50 (HL-60(TB) leukemia): 0.0375 µM
- TGI (HL-60(TB) leukemia): 0.0144 µM and 0.071 µM
- TGI (SNB-19 CNS): 0.225 µM and 0.244 µM
- GI50 (HOP-92 NSCLC): 0.0375 µM
- TGI (HOP-92 NSCLC): 0.374 µM and 0.0869 µM
- GI50 (IGROV1 ovarian): 0.0375 µM
- TGI (IGROV1 ovarian): 0.351 µM and 0.242 µM
- GI50 (SF-295 CNS): 0.0375 µM
- TGI (SF-295 CNS): 0.0982 µM and 0.0635 µM
- GI50 (HCT-15 colon): 0.0375 µM
- TGI (HCT-15 colon): 0.209 µM and 0.147 µM
- GI50 (M19-MEL melanoma): 0.0375 µM
- TGI (M19-MEL melanoma): 0.187 µM and 0.111 µM
- GI50 (SF-539 CNS): 0.0375 µM
- TGI (SF-539 CNS): 0.0383 µM and 0.0414 µM
- GI50 (DLD-1 colon): 0.0152 µM
- TGI (DLD-1 colon): 0.107 µM and 0.0583 µM
- TGI (COLO 205 colon): 0.168 µM and 0.139 µM
- GI50 (NCI-H23 lung): 0.0375 µM
- TGI (NCI-H23 lung): 0.0311 µM and 0.0704 µM
- GI50 (OVCAR-8 ovarian): 0.0375 µM
- TGI (OVCAR-8 ovarian): 0.0926 µM and 0.0472 µM
- GI50 (HOP-62 NSCLC): 0.0123 µM
- TGI (HOP-62 NSCLC): 0.105 µM and 0.048 µM
- GI50 (CAKI-1 renal): 0.015 µM
- TGI (CAKI-1 renal): 0.124 µM and 0.0425 µM
- TGI (MOLT-4 leukemia): 0.0054 µM
- GI50 (HOP-18 NSCLC): 0.0375 µM
- TGI (HOP-18 NSCLC): 0.075 µM and 0.436 µM
- GI50 (SK-MEL-2 melanoma): 0.0375 µM
- TGI (SK-MEL-2 melanoma): 0.0542 µM and 0.0976 µM
- TGI (OVCAR-3 ovarian): 0.0229 µM
- GI50 (OVCAR-5 ovarian): 0.0738 µM
- TGI (OVCAR-5 ovarian): 0.277 µM and 0.26 µM
- GI50 (UACC-257 melanoma): 0.0375 µM
- TGI (UACC-257 melanoma): 0.105 µM and 0.823 µM
- TGI (NCI-H522 lung): 0.00626 µM
- GI50 (XF 498 CNS): 0.0138 µM
- TGI (XF 498 CNS): 0.026 µM and 0.0553 µM
- GI50 (MALME-3M melanoma): 0.0112 µM
- TGI (MALME-3M melanoma): 0.0469 µM
- GI50 (SN12K1 renal): 0.0375 µM
- TGI (SN12K1 renal): 0.119 µM and 0.393 µM
- GI50 (P388 leukemia): 63.8 µM
- TGI (P388 leukemia): 245 µM
- GI50 (U251 CNS): 0.0375 µM
- TGI (U251 CNS): 0.151 µM and 0.109 µM
- TGI (A498 renal): 0.31 µM and 0.176 µM
